± gives the expanded uncertainty stated by the source.
Details: Liquid; Resistive pulse heating

Compared with CCOC(=O)CC(=O)OCC [diethyl 1,3-propanedioate], CCOC(=O)CCC(=O)OCC [diethyl butanedioate] is lower in Critical pressure: 2700 ± 80 kPa for the first, 2290 ± 70 kPa for the second.

Compound CCOC(=O)CCCCC(=O)OCC [diethyl hexanedioate] has a Critical pressure of 1990 ± 60 kPa.

Compared with CCOC(=O)CC(=O)OCC [diethyl 1,3-propanedioate], CCOC(=O)CCC(=O)OCC [diethyl butanedioate] is higher in Critical temperature: 651 ± 7 K for the first, 666 ± 7 K for the second.

CCOC(=O)CCCCC(=O)OCC [diethyl hexanedioate] gave a Critical temperature of 697 ± 7 K.

Reference: the NIST ThermoML archive (doi:10.1016/j.fluid.2015.12.031)
